Laboratory results: BindingDB's records for doi:10.1016/j.bmcl.2009.06.027 (Grupo Uriach, 2009)

Test: Inhibition of CXCL8-induced chemotaxis in human polymorphonuclear leukocyte pretreated for 15 mins measured after 4 hrs by cell migration assay

Row | IC50 | Structure (SMILES)
1 | > 1000 nM | O=C(O)Cc1cccc(C(=O)c2ccccc2)c1 [2-(3-benzoylphenyl)acetic acid]
2 | > 1000 nM | O=C(O)Cc1ccccc1Cc1c(Cl)cccc1Cl [2-(2-(2,6-dichlorobenzyl)phenyl)acetic acid]
3 | 8 nM | O=C(O)Cc1ccccc1Nc1c(Cl)cccc1Cl [{2-[(2,6-dichlorophenyl)amino]phenyl}acetic acid]
4 | > 1000 nM | CC(C)Cc1ccc(CC(=O)O)cc1 [Ibufenac]
5 | 13 nM | CC(C(=O)NS(C)(=O)=O)c1ccccc1Nc1c(Cl)cccc1Cl (stereo unspecified) [2-{2-[(2,6-Dichlorophenyl)amino]phenyl}-N-(methylsulfonyl)propanamide]
6 | > 1000 nM | O=C(O)Cc1ccccc1Nc1ccccc1 [(2-Phenylamino-phenyl)-acetic acid]
7 | 10 nM | CC(C(=O)O)c1ccccc1Nc1c(Cl)cccc1Cl (stereo unspecified) [2-{2-[(2,6-Dichlorophenyl)amino]phenyl}propanoic acid]
8 | 50 nM | CS(=O)(=O)NC(=O)Cc1ccccc1Oc1ccccc1F [2-[2-(2-Fluorophenoxy)phenyl]-N-(methylsulfonyl)acetamide]
9 | 650 nM | CC(C(=O)NC(C)(C)C)c1ccccc1Nc1c(Cl)cccc1Cl (stereo unspecified) [N-(tert-Butyl)-2-{2-[(2,6-dichlorophenyl)amino]phenyl}propanamide]
10 | 25 nM | O=C(O)Cc1ccccc1Nc1cc(Cl)ccc1Cl [[2-(2,5-Dichloro-phenylamino)-phenyl]-acetic acid]
11 | 500 nM | O=C(O)Cc1ccccc1Oc1ccccc1Cl [[2-(2-Chloro-phenoxy)-phenyl]-acetic acid]
12 | 50 nM | COc1ccc2c(c1)c(CC(=O)O)c(C)n2C(=O)c1ccc(Cl)cc1 [indometacin]
13 | 12 nM | CC(C(N)=O)c1ccccc1Nc1c(Cl)cccc1Cl (stereo unspecified) [2-{2-[(2,6-Dichlorophenyl)amino]phenyl}propanamide]
14 | 20 nM | CC(C(=O)NCCO)c1ccccc1Nc1c(Cl)cccc1Cl (stereo unspecified) [2-{2-[(2,6-Dichlorophenyl)amino]phenyl}-N-(2-hydroxyethyl)propanamide]
15 | 9 nM | O=C(O)Cc1ccccc1Nc1ccccc1F [2-(2-(2-fluorophenylamino)phenyl)acetic acid]
16 | 90 nM | Cc1ccc(C(=O)c2ccc(CC(=O)O)n2C)cc1 [2-(1-methyl-5-(4-methylbenzoyl)-1H-pyrrol-2-yl)acetic acid]
17 | 13 nM | O=C(O)Cc1ccccc1Oc1ccccc1F [2-(2-(2-fluorophenoxy)phenyl)acetic acid]
18 | 400 nM | O=C(O)Cc1ccccc1Nc1ccccc1Cl [[2-(2-Chloro-phenylamino)-phenyl]-acetic acid]
19 | > 1000 nM | CC(C(=O)NCCC[N+](C)(C)C)c1ccccc1Nc1c(Cl)cccc1Cl (stereo unspecified) [3-(2-(2-(2,6-dichlorophenylamino)phenyl)propanamido)-N,N,N-trimethylpropan-1-aminium iodide]
20 | > 1000 nM | O=C(O)Cc1ccccc1Oc1ccccc1 [(2-Phenoxy-phenyl)-acetic acid]
21 | > 1000 nM | O=C(O)Cc1ccccc1Nc1c(F)cccc1F [2-(2-(2,6-difluorophenylamino)phenyl)acetic acid]
22 | 25 nM | CC(C(=O)NCCCN(C)C)c1ccccc1Nc1c(Cl)cccc1Cl (stereo unspecified) [2-{2-[(2,6-Dichlorophenyl)amino]phenyl}-N,N'-[3,3-(dimethylamino)propyl]propanamide]
23 | 600 nM | Cc1cccc(C)c1NC(=O)C(C)c1ccccc1Nc1c(Cl)cccc1Cl (stereo unspecified) [2-{2-[(2,6-Dichlorophenyl)amino]phenyl}-N-(2,6-dimethylphenyl)propanamide]
24 | > 1000 nM | Cc1ccccc1Nc1ccccc1CC(=O)O [2-(2-(o-tolylamino)phenyl)acetic acid]

Row | Structure (SMILES) | IC50
25 | Cc1ccc(Cl)c(Nc2ccccc2CC(=O)O)c1Cl [2-(2-(2,6-dichloro-3-methylphenylamino)phenyl)acetic acid] | 500 nM

Test: Inhibition of wild type CXCR1 transfected in mouse L1.2 cells assessed as inhibition of CXCL8-induced cell migration pretreated for 15 mins measured after 4 hrs

Row | IC50 | Structure (SMILES)
26 | 12 nM | O=C(O)Cc1ccccc1Nc1c(Cl)cccc1Cl [{2-[(2,6-dichlorophenyl)amino]phenyl}acetic acid]
